In the supplement of paper PMC10307832:

Columns and labels:
Assay in all cases: relative viability (nuclei count vs DMSO), 5 days (fraction); higher = more cells survive
MK-8033 + Olaparib = compound: Cn1cc(-c2cnc3ccc4ccc(CS(=O)(=O)NCc5ccccn5)cc4c(=O)c3c2)cn1 [MK-8033] + O=C(c1cc(Cc2n[nH]c(=O)c3ccccc23)ccc1F)N1CCN(C(=O)C2CC2)CC1 [Olaparib] (partner 8 µM)
Method in brief: (§1)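 Dosing by pin tool came one day after lung cancer cell lines were seeded in 1536-well plates, using either one drug or a fixed anchor-drug dose plus five library-drug doses (not always all listed) in √10 steps. After 5 days, nuclei were counted on 4× images. Relative viability is treated-well nuclei count divided by vehicle-well nuclei count, and values are medians of duplicate plates.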

RU-SKI 43 + Dasatinib = compound: CC[C@@H](C)CNCC(=O)N1CCC2=C([C@@H]1COC3=CC=CC(=C3)C)C=CS2 [RU-SKI 43] + Cc1nc(Nc2ncc(C(=O)Nc3c(C)cccc3Cl)s2)cc(N2CCN(CCO)CC2)n1 [Dasatinib] (partner 0.075 µM)
Method in brief: as §1

Irinotecan + AZD7762 = compound: CCc1c2c(nc3ccc(OC(=O)N4CCC(N5CCCCC5)CC4)cc13)-c1cc3c(c(=O)n1C2)COC(=O)[C@]3(O)CC [Irinotecan] + NC(=O)Nc1cc(-c2cccc(F)c2)sc1C(=O)N[C@H]1CCCNC1 [AZD7762] (partner 0.2 µM)
Method in brief: as §1

RU-SKI 43 + AZD7762 = compound: CC[C@@H](C)CNCC(=O)N1CCC2=C([C@@H]1COC3=CC=CC(=C3)C)C=CS2 [RU-SKI 43] + NC(=O)Nc1cc(-c2cccc(F)c2)sc1C(=O)N[C@H]1CCCNC1 [AZD7762] (partner 0.2 µM)
Method in brief: as §1

Cell Line | relative viability (MK-8033 + Olaparib; first compound 0.02 µM) | relative viability (MK-8033 + Olaparib; first compound 0.06325 µM) | relative viability (MK-8033 + Olaparib; first compound 0.2 µM) | relative viability (MK-8033 + Olaparib; first compound 0.6325 µM) | relative viability (MK-8033 + Olaparib; first compound 2 µM) | relative viability (RU-SKI 43 + Dasatinib; first compound 0.1 µM) | relative viability (RU-SKI 43 + Dasatinib; first compound 0.3162 µM) | relative viability (RU-SKI 43 + Dasatinib; first compound 1 µM) | relative viability (RU-SKI 43 + Dasatinib; first compound 3.162 µM) | relative viability (RU-SKI 43 + Dasatinib; first compound 10 µM) | relative viability (Irinotecan + AZD7762; first compound 0.6325 µM) | relative viability (Irinotecan + AZD7762; first compound 2 µM) | relative viability (Irinotecan + AZD7762; first compound 6.325 µM) | relative viability (Irinotecan + AZD7762; first compound 20 µM) | relative viability (RU-SKI 43 + AZD7762; first compound 0.1 µM) | relative viability (RU-SKI 43 + AZD7762; first compound 0.3162 µM) | relative viability (RU-SKI 43 + AZD7762; first compound 1 µM) | relative viability (RU-SKI 43 + AZD7762; first compound 3.162 µM) | relative viability (RU-SKI 43 + AZD7762; first compound 10 µM)
SK-MES-1 | 0.682 | 0.658 | 0.677 | 0.76 | 0.717 | 0.336 | 0.358 | 0.357 | 0.342 | 0.388 |  |  |  |  |  |  |  |  | 
HOP-62 | 0.407 | 0.51 | 0.417 | 0.399 | 0.471 | 0.741 | 0.709 | 0.875 | 0.641 | 0.603 | 0.211 | 0.316 | 0.236 | 0.161 | 0.463 | 0.643 | 0.71 | 0.704 | 0.529
NCI-H520 | 0.306 | 0.326 | 0.357 | 0.307 | 0.315 | 0.188 | 0.233 | 0.297 | 0.272 | 0.191 |  |  |  |  |  |  |  |  | 
EBC-1 | 0.659 | 0.565 | 0.792 | 0.648 | 0.568 |  |  |  |  |  |  |  |  |  |  |  |  |  | 
BEN | 1.13 | 1.01 | 0.986 | 0.985 | 1.01 | 0.333 | 0.253 | 0.474 | 0.272 | 0.316 | 0.55 | 0.677 | 0.447 | 0.472 | 0.801 | 0.652 | 0.786 | 0.642 | 0.743
NCI-H322M | 0.725 | 0.762 | 0.733 | 0.782 | 0.739 | 0.256 | 0.238 | 0.255 | 0.249 | 0.259 | 0.537 | 0.553 | 0.448 | 0.28 | 0.57 | 0.561 | 0.474 | 0.624 | 0.465
LU99A | 0.28 | 0.222 | 0.223 | 0.266 | 0.22 | 0.486 | 0.614 | 0.602 | 0.587 | 0.599 | 0.152 | 0.13 | 0.106 | 0.132 | 0.255 | 0.377 | 0.264 | 0.267 | 0.343
NCI-H2405 | 0.832 | 0.881 | 0.868 | 0.913 | 0.876 | 0.213 | 0.198 | 0.218 | 0.209 | 0.194 |  | 0.765 | 0.298 | 0.197 | 0.801 | 0.83 | 0.876 | 0.84 | 0.452
NCI-H1395 | 0.448 | 0.362 | 0.463 | 0.469 | 0.462 | 0.4 | 0.375 | 0.437 | 0.37 | 0.456 |  | 0.441 | 0.424 | 0.233 | 0.382 | 0.394 | 0.387 | 0.393 | 0.394
HCC-44 | 1 | 1.06 | 0.931 | 1.01 | 0.975 |  |  |  |  |  | 0.909 | 1.03 | 0.798 | 0.486 | 0.995 | 1.04 | 1.08 | 1.06 | 1.01
NCI-H441 | 0.628 | 0.446 | 0.56 | 0.529 | 0.59 | 0.615 | 0.656 | 0.553 | 0.582 | 0.386 | 0.964 | 0.411 | 0.277 | 0.288 | 0.795 | 1.55 | 1.23 | 1.22 | 1.17
Calu-6 | 0.601 | 0.559 | 0.553 | 0.582 | 0.548 |  |  |  |  |  |  |  |  |  |  |  |  |  | 
CAL-12T | 0.61 | 0.692 | 0.71 | 0.718 | 0.756 | 0.404 | 0.41 | 0.348 | 0.38 | 0.413 | 0.676 | 0.564 | 0.453 | 0.29 | 0.644 | 0.735 | 0.698 | 0.714 | 0.648
HCC-78 | 0.717 | 0.82 | 0.739 | 0.505 | 0.775 | 0.457 | 0.349 | 0.607 | 0.319 | 0.369 | 0.629 | 0.666 | 0.392 | 0.302 | 0.716 | 0.638 | 0.85 | 0.6 | 0.695
NCI-H2170 | 0.602 | 0.539 | 0.648 | 0.59 | 0.536 | 0.695 | 0.634 | 0.616 | 0.716 | 0.467 | 0.649 | 0.562 | 0.173 | 0.133 | 0.846 | 1.07 | 0.959 | 0.866 | 0.882
NCI-H1623 |  |  |  |  |  | 0.513 | 0.514 | 0.668 | 0.541 | 0.468 |  |  |  |  |  |  |  |  | 
NCI-H23 | 0.295 | 0.307 | 0.221 |  | 0.332 | 0.691 | 0.809 | 0.797 | 0.868 | 0.515 | 0.158 | 0.238 | 0.251 | 0.202 | 0.197 | 0.229 | 0.202 | 0.216 | 0.154
COR-L 105 | 0.846 | 0.673 | 0.7 | 0.637 | 0.701 | 0.323 | 0.259 | 0.304 | 0.36 | 0.335 |  |  |  |  |  |  |  |  | 
LOU-NH91 | 0.893 | 0.679 | 0.842 | 0.913 | 0.882 | 0.553 | 0.604 | 0.624 | 0.581 | 0.554 | 0.719 | 0.756 | 0.421 | 0.156 | 0.789 | 0.74 | 0.85 | 0.831 | 0.74
NCI-H650 | 0.412 | 0.364 | 0.403 | 0.399 | 0.335 | 0.484 | 0.45 | 0.468 | 0.398 | 0.45 | 0.722 | 1.09 | 0.309 | 0.217 | 0.944 | 1.09 |  | 1.04 | 1.06
